# Test results from PubChem BioAssay AID1919003 (Molecular Pharmacology Branch, DTP, NCI, 2023).
# Test system: 786-0 complex spheroids with HUVEC/MSC, growth % test/control
# Assay: Anticancer human tumor 786-0 cell line growth inhibition [AhR];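 further: compound exposure lasted seven days before the read-out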
# Conditions: for IC50: curve of first compound; for viability, T/C: stronger effect = lower value
# Text: Multicellular complex tumor spheroid response to aryl hydrocarbon receptor antagonists in combination with a variety of drugs and investigational agents in selected tumor cell lines
# The current study was undertaken to assess response to aryl hydrocarbon receptor antagonists in combination with standard-of-care drugs and investigational agents in solid tumor complex spheroid models. Complex spheroids include a stromal component modeled by human endothelial cells (HUVEC) and fibroblasts modeled by human mesenchymal stem cells (MSCs). The concentration ranges selected for each drug and investigational agent were based upon clinically achievable concentrations if the clinical Cmax of the agent was known.
# Compounds. The drugs and investigational agents: BAY 2416964 (NSC825713), GNF351 (NSC835774), CH-223191 (NSC835775), CPI-455 (NSC825282), aza-TdCyd (NSC777586), decitabine (NSC127716), belinostat (NSC758774), entinostat (NSC756642), pevonedistat (NSC761192), tazemetostat (NSC777109), talazoparib (NSC765396), olaparib (NSC753686), selinexor (NSC780203), nedisertib (M3814, NSC802822), bortezomib (NSC756655), venetoclax (NSC766270), doxorubicin (NSC123127), elimusertib (BAY189344, NSC800525), ceralasertib (AZD6738, NSC777638), TAK-243 (NSC785004), alisertib (NSC759677), etoposide (NSC141540), topotecan (NSC609699), eribulin (NSC707389), gemcitabine (NSC613327), carboplatin (NSC241240), cisplatin (NSC119875), and SN-38 (NSC673596) were obtained from the National Cancer Institute (NCI) Developmental Therapeutics Program Chemical Repository (32). The FDA-approved anticancer drug set is available from the Developmental Therapeutics Program at https://dtp.cancer.gov/organization/dscb/obtaining/available plates.htm. […] The stock solutions were prepared in dimethyl sulfoxide (DMSO, Sigma-Aldrich, St. Louis, MO, cat. D2650), except for the platinum compounds which were prepared in saline (Quality Biological, Gaithersburg, MD, cat. 114-055-101), at 800-fold the tested concentration and stored at -70 degrees C prior to their use. All drugs and investigational agents were tested over a range starting from a high concentration at or near the clinical Cmax and decreasing in half-log increments. If the clinical Cmax for an agent had not been determined, the highest concentration tested was 10 microM (Table 1).
# Cell Culture. All cells were maintained in an incubator at 37 degrees C and 5% CO2 with 95% humidity. The PDC lines were cultured according to standard operating procedures established by the NCI PDMR (https://pdmr.cancer.gov). Briefly, all PDCs were thawed and cultured in Matrigel-coated flasks prepared with a working solution of 1X Ham's F-12 nutrient mix, without supplementation (Invitrogen, Waltham, MA, cat. 11765054), 100 U/mL penicillin-streptomycin (Invitrogen, cat. 15140122), and 2.5% Matrigel (Corning Inc., Corning, NY, cat. 354248) for the first three passages. All PDCs were cultured in complete DMEM/F-12 media containing advanced DMEM/F-12 (Invitrogen, cat. 12634028), 4.9% defined fetal bovine serum, heat inactivated (HyClone Laboratories Inc., Logan, UT, cat. SH30070.03HI), 389 ng/mL hydrocortisone (Sigma-Aldrich, cat. H4001), 9.7 ng/mL human EGF recombinant protein (Invitrogen, cat. PHG0313), 23.4 microg/mL adenine (Sigma-Aldrich, cat. A2786), 97.3 U/mL penicillin-streptomycin (Invitrogen, cat. 15140122), 1.9 mM L-glutamine (Invitrogen, cat. 25030081), and 9.7 microM Y-27632 dihydrochloride (Tocris Bioscience, Bristol, United Kingdom, cat. 1254). The PDCs were cultured in complete DMEM/F12 media without 10 microM Y-27632 dihydrochloride for at least two passages prior to the screen. The established cell lines NCI-H1341 and […] were cultured in DMEM/F-12, HEPES (Invitrogen, cat. 11330032), 5% defined fetal bovine serum (HyClone Laboratories Inc., cat. SH30070.03), ITS premix universal culture supplement [insulin (5 microg/mL), transferrin (5 microg/mL), and selenious acid (5 ng/mL)] […]
# [1] = second compound 0.1 µM, first compound 0.0316 µM
# [2] = second compound 0.1 µM, first compound 0.1 µM
# [3] = second compound 0.1 µM, first compound 0.316 µM
# [4] = second compound 0.1 µM, first compound 1 µM
# [5] = second compound 0.1 µM, first compound 3.16 µM
# [6] = second compound 0.1 µM, first compound 10 µM
# [7] = second compound 0.316 µM, first compound 0.0316 µM
# [8] = second compound 0.316 µM, first compound 0.1 µM
# [9] = second compound 0.316 µM, first compound 0.316 µM
# [10] = second compound 0.316 µM, first compound 1 µM
# [11] = second compound 0.316 µM, first compound 3.16 µM
# [12] = second compound 0.316 µM, first compound 10 µM
# [13] = second compound 1 µM, first compound 0.0316 µM
# [14] = second compound 1 µM, first compound 0.1 µM
# [15] = second compound 1 µM, first compound 0.316 µM
# [16] = second compound 1 µM, first compound 1 µM
# [17] = second compound 1 µM, first compound 3.16 µM
# [18] = second compound 1 µM, first compound 10 µM
# [19] = second compound 3.16 µM, first compound 0.0316 µM
# [20] = second compound 3.16 µM, first compound 0.1 µM
# [21] = second compound 3.16 µM, first compound 0.316 µM
# [22] = second compound 3.16 µM, first compound 1 µM
# [23] = second compound 3.16 µM, first compound 3.16 µM
# [24] = second compound 3.16 µM, first compound 10 µM
# [25] = second compound 10 µM, first compound 0.0316 µM
# [26] = second compound 10 µM, first compound 0.1 µM
# [27] = second compound 10 µM, first compound 0.316 µM
# [28] = second compound 10 µM, first compound 1 µM
# [29] = second compound 10 µM, first compound 3.16 µM
# [30] = second compound 10 µM, first compound 10 µM
structure (smiles),measurement,setting,value
CC(C)c1c(-c2ccccc2)nc2c(C#N)c[nH]n2c1=O + Cc1ccccc1N=Nc1ccc(NC(=O)c2ccnn2C)c(C)c1,IC50,second compound 0.1 µM,> 10000 nM
same,IC50,second compound 0.316 µM,> 10000 nM
same,IC50,second compound 1 µM,> 10000 nM
same,IC50,second compound 3.16 µM,> 10000 nM
same,IC50,second compound 10 µM,> 10000 nM
same,"viability, T/C",[1],93.9%
same,"viability, T/C",[2],99.9%
same,"viability, T/C",[3],99.5%
same,"viability, T/C",[4],101%
same,"viability, T/C",[5],92.1%
same,"viability, T/C",[6],99%
same,"viability, T/C",[7],90.1%
same,"viability, T/C",[8],93.4%
same,"viability, T/C",[9],97.1%
same,"viability, T/C",[10],95.5%
same,"viability, T/C",[11],92.6%
same,"viability, T/C",[12],95.2%
same,"viability, T/C",[13],94.6%
same,"viability, T/C",[14],92.8%
same,"viability, T/C",[15],114%
same,"viability, T/C",[16],98.6%
same,"viability, T/C",[17],96.3%
same,"viability, T/C",[18],88.9%
same,"viability, T/C",[19],86.8%
same,"viability, T/C",[20],85.3%
same,"viability, T/C",[21],89.6%
same,"viability, T/C",[22],82.8%
same,"viability, T/C",[23],85%
same,"viability, T/C",[24],84.2%
same,"viability, T/C",[25],86.6%
same,"viability, T/C",[26],83.9%
same,"viability, T/C",[27],84.5%
same,"viability, T/C",[28],82.4%
same,"viability, T/C",[29],83.1%
same,"viability, T/C",[30],79.5%
COc1cccc2c1C(=O)c1c(O)c3c(c(O)c1C2=O)CC(O)(C(=O)CO)CC3OC1CC(N)C(O)C(C)O1 (stereo not given) + Cc1ccccc1N=Nc1ccc(NC(=O)c2ccnn2C)c(C)c1,IC50,second compound 0.1 µM,126 nM
same,IC50,second compound 0.316 µM,122 nM
same,IC50,second compound 1 µM,132 nM
same,IC50,second compound 3.16 µM,119 nM
same,IC50,second compound 10 µM,76.5 nM
same,"viability, T/C",[1],73.8%
same,"viability, T/C",[2],56.6%
same,"viability, T/C",[3],24.7%
same,"viability, T/C",[4],9.36%
same,"viability, T/C",[5],1.43%
same,"viability, T/C",[6],1.74%
same,"viability, T/C",[7],69.3%
same,"viability, T/C",[8],55.7%
same,"viability, T/C",[9],24.7%
same,"viability, T/C",[10],10.1%
same,"viability, T/C",[11],2.44%
same,"viability, T/C",[12],3.3%
same,"viability, T/C",[13],77.4%
same,"viability, T/C",[14],57.4%
same,"viability, T/C",[15],26.7%
same,"viability, T/C",[16],9.75%
same,"viability, T/C",[17],1.55%
same,"viability, T/C",[18],1.78%
same,"viability, T/C",[19],66.6%
same,"viability, T/C",[20],55.2%
same,"viability, T/C",[21],24.5%
same,"viability, T/C",[22],9.36%
same,"viability, T/C",[23],1.41%
same,"viability, T/C",[24],1.09%
same,"viability, T/C",[25],57.6%
same,"viability, T/C",[26],48.8%
same,"viability, T/C",[27],22.4%
same,"viability, T/C",[28],9.51%
same,"viability, T/C",[29],1.98%
same,"viability, T/C",[30],1.15%
